Source: patent US6673795B2, “Pyrimidine, pyrazine and triazane derivatives” (Hoffmann-La Roche Inc., priority 2001, dated 2004)

Tests used:
rat mGluR1a receptor = biological target: T1, rat mGluR1a receptor (Rattus norvegicus, UniProt P23385); assay: Binding assay for the characterization of mGluR 1 antagonistic properties (tritiated radioligand displacement); details: membranes of HEK 293 cells transiently transfected with rat mGluR1a; tritiated 1-ethyl-2-methyl-6-oxo-4-(1,1,2-tritritio-1,2,4,5-tetrahydro-benzo[d]azepin-3-yl)-1,6-dihydro-pyrimidine-5-carbonitrile at 3 nM; 1 hour at room temperature
T1 construct: expressed in transfected cells; host or cells: HEK 293 cells, transient transfection; membrane preparation
Protocol: Binding Assay for the Characterization of mGluR 1 Antagonistic Properties
Binding assay with tritiated 1-ethyl-2-methyl-6-oxo-4-(1,1,2-tritritio-1,2,4,5-tetrahydro-benzo[d]azepin-3-yl)-1,6-dihydro-pyrimidine-5-carbonitrile: HEK 293 cells were transiently transfected with the rat mGluR^1 a receptor. The cells were collected and washed 3 times with PBS. The cell pellets were frozen at −80° C. Membranes were prepared from HEK 293 cells transfected with the rat mGluR^1 a receptor and used in the binding experiments at 10 μg proteins per assay after resuspension in a HEPES NaOH 20 mM, pH=7.4 binding buffer. 1-Ethyl-2-methyl-6-oxo-4-(1,1,2-tritritio-1,2,4,5-tetrahydro-benzo [d]azepin-3-yl)-1,6-dihydro-pyrimidine-5-carbonitrile (S.A 33.4 Ci/mmol) was used at 3 nM final concentration. The incubation with variable concentrations of potential inhibitors was performed for 1 hour at room temperature, the incubate was then filtered onto GF/B glass fiber filter preincubated 1 hour in PEI 0,1% and washed 3 times with 1 ml of cold binding buffer. The radioactivity retained on the unifilter 96 was counted using a Topcount β counter. After correction for non specific binding the data were normalized and the IC50 value calculated using a 4 parameters logistic equation which was fitted to the inhibition curve.

T1 sequence (P23385 19-1199): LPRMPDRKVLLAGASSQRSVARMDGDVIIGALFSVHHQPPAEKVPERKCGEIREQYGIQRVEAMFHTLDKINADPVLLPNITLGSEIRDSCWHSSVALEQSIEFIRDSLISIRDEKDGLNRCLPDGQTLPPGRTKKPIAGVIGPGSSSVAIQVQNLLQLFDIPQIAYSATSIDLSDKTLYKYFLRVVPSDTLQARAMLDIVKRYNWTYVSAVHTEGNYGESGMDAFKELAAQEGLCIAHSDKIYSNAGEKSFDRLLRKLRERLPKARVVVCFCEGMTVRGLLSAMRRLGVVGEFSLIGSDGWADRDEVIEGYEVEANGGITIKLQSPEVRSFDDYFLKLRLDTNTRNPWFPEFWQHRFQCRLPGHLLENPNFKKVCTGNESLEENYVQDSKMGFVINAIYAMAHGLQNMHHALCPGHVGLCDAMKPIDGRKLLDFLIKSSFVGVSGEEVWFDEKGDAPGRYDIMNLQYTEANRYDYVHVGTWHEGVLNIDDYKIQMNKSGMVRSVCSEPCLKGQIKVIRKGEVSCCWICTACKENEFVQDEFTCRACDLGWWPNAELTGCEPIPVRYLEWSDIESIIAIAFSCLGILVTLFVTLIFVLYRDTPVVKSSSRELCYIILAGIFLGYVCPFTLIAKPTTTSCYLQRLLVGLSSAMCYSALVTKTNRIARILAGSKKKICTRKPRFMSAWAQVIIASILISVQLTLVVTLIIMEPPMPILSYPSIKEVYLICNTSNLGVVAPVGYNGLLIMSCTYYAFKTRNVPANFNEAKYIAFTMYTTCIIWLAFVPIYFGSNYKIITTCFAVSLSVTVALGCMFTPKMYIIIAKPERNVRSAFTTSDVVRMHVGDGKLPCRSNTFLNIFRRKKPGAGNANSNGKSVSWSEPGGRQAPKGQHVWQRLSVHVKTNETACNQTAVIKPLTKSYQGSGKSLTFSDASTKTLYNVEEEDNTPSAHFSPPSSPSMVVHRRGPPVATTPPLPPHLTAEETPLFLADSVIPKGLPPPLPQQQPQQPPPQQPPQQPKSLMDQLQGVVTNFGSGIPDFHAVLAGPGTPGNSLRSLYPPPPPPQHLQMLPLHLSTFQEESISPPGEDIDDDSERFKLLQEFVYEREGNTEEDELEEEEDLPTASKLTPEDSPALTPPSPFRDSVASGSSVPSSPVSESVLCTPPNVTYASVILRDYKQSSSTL

| SMILES | IC50 (rat mGluR1a receptor) [nM] | melting point |
| --- | --- | --- |
| Cc1nc(N2CCC(c3ccc(F)cc3)CC2)c([N+](=O)[O-])c(=O)n1CCCCO [Example 18, 6-[4-(4-Fluoro-phenyl)-piperidin-1-yl]-3-(4-hydroxy-butyl)-2-methyl-5-nitro-3H-pyrimidin-4-one] | 280 | 154 to 156 °C |
| Cc1nc(N2CCN(c3ccc(F)cc3)CC2)c([N+](=O)[O-])c(=O)[nH]1 [Example 1, 6-[4-(4-Fluoro-phenyl)-piperazin-1-yl]-2-methyl-5-nitro-3H-pyrimidin-4-one] | 810 | > 250 °C (dec.) |
| Cc1nc(N2CCC(c3ccccc3)CC2)c([N+](=O)[O-])c(=O)[nH]1 [Example 5, 2-Methyl-5-nitro-6-(4-phenyl-piperidin-1-yl)-3H-pyrimidin-4-one] | 63 | 210 to 213 °C |
| N#Cc1ncc(NCCO)nc1N1CCN(c2ccc(F)cc2)CC1 [Example 83, 4-(4-Fluoro-phenyl)-6′-(2-hydroxy-ethylamino)-3,4,5,6-tetrahydro-2H-[1,2′]bipyrazinyl-3′-carbonitrile] | 1000 | 149 to 151 °C |

The remaining lines, values ahead:

| IC50 (rat mGluR1a receptor) [nM] | melting point | SMILES |
| --- | --- | --- |
| 180 | 116 to 119 °C | CCOc1nc(C)nc(N2CCN(c3ccc(F)cc3)CC2)c1[N+](=O)[O-] [Example 10-2, 4-ethoxy-6-[4-(4-fluoro-phenyl)-piperazin-1-yl]-2-methyl-5-nitro-pyrimidine] |
| 17 | 99 to 101 °C | CCc1nc(C#N)c(N2CCN(c3ccccc3)CC2)nc1C [Example 75-1, 5′-ethyl-6′-methyl-4-phenyl-3,4,5,6-tetrahydro-2H-[1,2′]bipyrazinyl-3′-carbonitrile] |
